Assays:
[1] = molecular target: T1, Amine oxidase [flavin-containing] B (Mus musculus, UniProt Q8BW75); assay: Inhibition of mouse brain MAO-B
T1 sequence (Q8BW75 whole entry): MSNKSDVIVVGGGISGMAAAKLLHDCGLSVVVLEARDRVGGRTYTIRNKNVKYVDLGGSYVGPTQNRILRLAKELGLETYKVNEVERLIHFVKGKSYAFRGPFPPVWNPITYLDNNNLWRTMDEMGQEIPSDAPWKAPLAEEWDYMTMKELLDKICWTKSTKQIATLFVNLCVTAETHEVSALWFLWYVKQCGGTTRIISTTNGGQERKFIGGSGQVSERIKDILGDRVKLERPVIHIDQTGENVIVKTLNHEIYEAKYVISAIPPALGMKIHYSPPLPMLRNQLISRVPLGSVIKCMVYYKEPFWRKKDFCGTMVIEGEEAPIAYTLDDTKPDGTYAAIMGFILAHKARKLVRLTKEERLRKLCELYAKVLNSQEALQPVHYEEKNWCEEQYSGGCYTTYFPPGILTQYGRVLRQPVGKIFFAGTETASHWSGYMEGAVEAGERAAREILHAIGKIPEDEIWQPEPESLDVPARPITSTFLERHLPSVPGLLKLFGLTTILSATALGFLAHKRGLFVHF

[2] = molecular target: T2, Amine oxidase [flavin-containing] A (Mus musculus, UniProt Q64133); assay: Inhibition of mouse brain MAO-A
T2 sequence (Q64133 whole entry): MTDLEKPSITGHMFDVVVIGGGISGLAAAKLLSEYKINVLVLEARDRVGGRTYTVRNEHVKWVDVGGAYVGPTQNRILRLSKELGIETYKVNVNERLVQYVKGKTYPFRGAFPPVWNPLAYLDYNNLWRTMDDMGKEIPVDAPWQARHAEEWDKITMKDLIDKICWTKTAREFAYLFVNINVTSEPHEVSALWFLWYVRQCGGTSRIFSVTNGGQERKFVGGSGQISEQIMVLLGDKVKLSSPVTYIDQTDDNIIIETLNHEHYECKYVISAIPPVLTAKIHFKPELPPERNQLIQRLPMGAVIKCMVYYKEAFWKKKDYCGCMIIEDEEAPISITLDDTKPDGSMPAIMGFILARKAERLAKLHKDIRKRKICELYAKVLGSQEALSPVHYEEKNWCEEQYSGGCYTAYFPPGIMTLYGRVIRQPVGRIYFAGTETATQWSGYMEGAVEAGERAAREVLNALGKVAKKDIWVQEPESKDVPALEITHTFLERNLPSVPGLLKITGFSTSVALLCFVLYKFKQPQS

[3] = Inhibition of mouse brain monoamine oxidase
[4] = molecular target: T3, Amine oxidase [flavin-containing] B (Homo sapiens, UniProt P27338); assay: Inhibition of MAO-B (unknown origin)
T3 sequence (P27338 whole entry): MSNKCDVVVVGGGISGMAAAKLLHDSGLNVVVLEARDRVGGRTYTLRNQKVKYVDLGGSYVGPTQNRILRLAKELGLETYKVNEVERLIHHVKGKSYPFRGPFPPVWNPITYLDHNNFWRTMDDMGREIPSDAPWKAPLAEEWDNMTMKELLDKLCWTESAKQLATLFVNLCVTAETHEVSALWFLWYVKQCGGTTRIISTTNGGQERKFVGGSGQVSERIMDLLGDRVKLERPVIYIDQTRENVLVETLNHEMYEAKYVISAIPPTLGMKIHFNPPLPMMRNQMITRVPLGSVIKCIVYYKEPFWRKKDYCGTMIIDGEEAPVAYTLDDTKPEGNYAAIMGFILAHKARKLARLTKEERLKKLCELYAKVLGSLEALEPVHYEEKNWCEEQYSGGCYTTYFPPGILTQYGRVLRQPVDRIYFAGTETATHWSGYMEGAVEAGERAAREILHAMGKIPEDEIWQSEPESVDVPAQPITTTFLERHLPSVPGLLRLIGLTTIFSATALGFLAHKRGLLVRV

[5] = organism: Homo sapiens; assay: Selectivity index, ratio of pIC50 for MAO-B (unknown origin) to pIC50 for MAO-A (unknown origin)
[6] = organism: Homo sapiens; assay: Selectivity ratio for MAO-A (unknown origin) over MAO-B (unknown origin)
[7] = molecular target: T4, Amine oxidase [flavin-containing] A (Homo sapiens, UniProt P21397); assay: Inhibition of MAO-A (unknown origin)
T4 sequence (P21397 whole entry): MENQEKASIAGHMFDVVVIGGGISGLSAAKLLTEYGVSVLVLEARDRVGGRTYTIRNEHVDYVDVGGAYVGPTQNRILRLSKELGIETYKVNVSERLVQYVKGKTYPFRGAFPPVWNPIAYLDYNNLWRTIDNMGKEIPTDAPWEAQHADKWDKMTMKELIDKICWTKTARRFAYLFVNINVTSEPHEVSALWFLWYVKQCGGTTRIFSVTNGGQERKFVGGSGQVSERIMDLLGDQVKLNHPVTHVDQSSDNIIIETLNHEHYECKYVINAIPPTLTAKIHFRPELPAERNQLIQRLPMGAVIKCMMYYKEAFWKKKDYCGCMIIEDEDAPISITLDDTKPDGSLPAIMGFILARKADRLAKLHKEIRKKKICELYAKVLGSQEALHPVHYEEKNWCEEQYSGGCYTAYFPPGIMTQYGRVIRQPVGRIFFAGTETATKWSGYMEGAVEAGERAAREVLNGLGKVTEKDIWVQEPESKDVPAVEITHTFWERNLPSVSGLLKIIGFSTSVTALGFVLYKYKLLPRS

[8] = Inhibition of mouse brain monoamine oxidase using kynuramine as substrate by fluorometric analysis

Q: With C=C(C)[C@H](O)CC/C(C)=C/COc1ccc2ccc(=O)oc2c1 as the compound, how does the IC50 [1] read?
A: 0.5 µM

Q: And the IC50 [2]?
A: 1300 nM

Q: And the IC50 [3]?
A: 0.7 µM

Q: Which IC50 [4] does the source give for O=C(Cl)c1cc2cc(Cl)ccc2oc1=O here?
A: 0.01 µM

Q: For C/C=C(/C)C(=O)O[C@H]1[C@@H](OC(C)=O)c2c(ccc3ccc(=O)oc23)OC1(C)C, which IC50 [3] is on record?
A: 27.4 µM

Q: Which results are given for CC(C)=CCC/C(C)=C/COc1ccc2ccc(=O)oc2c1?
A: IC50 [1]: 0.6 µM; IC50 [2]: 0.0346 nM; IC50 [3]: 1.7 µM

Q: Which Ratio pIC50 [5] does the source give for Cc1ccc2oc(=O)c(C(=O)O)cc2c1 here?
A: 2.8

Q: And the IC50 [4]?
A: 0.0191 µM

Q: For CC1(C)OC(/C=C/COc2ccc3ccc(=O)oc3c2)=CC1=O, which Selectivity ratio [6] is on record?
A: 850

Q: What does the source list for COc1c2ccoc2cc2oc(=O)ccc12 [BERGAPTEN]?
A: IC50 [7]: 13.8 µM; IC50 [3]: 13.8 µM

Q: What does the source list for O=C(O)c1cc2ccccc2oc1=O [COUMARIN-3-CARBOXYLIC ACID]?
A: Ratio pIC50 [5]: 2.94; IC50 [4]: 0.0174 µM

Q: Which IC50 [8] does the source give for O=c1ccc2cc(O)c(O)cc2o1 [ESCULETIN] here?
A: 31.1 µM

Q: For COc1cc2oc(=O)ccc2cc1O [ISOSCOPOLETIN], which IC50 [8] is on record?
A: 32.2 µM

Q: For COc1c(OCC=C(C)C)ccc2ccc(=O)oc12 [LACINARTIN], which IC50 [1] is on record?
A: 28.6 µM

Q: What about the IC50 [2] of the same compound?
A: 5700 nM

Q: And the IC50 [3]?
A: 9.2 µM

Q: With O=c1ccc2cc3ccoc3cc2o1 [PSORALEN] as the compound, how does the IC50 [7] read?
A: 21.3 µM

Q: And the IC50 [3]?
A: 35.8 µM

Q: With COc1cc2ccc(=O)oc2cc1O [SCOPOLETIN] as the compound, how does the IC50 [8] read?
A: 45 µM

Source: ChEMBL document CHEMBL2375267, “A comprehensive review on synthesis and designing aspects of coumarin derivatives as monoamine oxidase inhibitors for depression and Alzheimer's disease” (Bioorg Med Chem, 2013)
